Measurements reported in patent US11701394B2, “Compositions and methods for treating cholestatic disease” (Seres Therapeutics, Inc., priority 2017, dated 2023).

What was measured:
[1] = molecular target: T1, human FXR (Homo sapiens, UniProt Q96RI1); details: in the presence of 50 uM CDCA
T1 sequence (Q96RI1 262-486 limits assumed): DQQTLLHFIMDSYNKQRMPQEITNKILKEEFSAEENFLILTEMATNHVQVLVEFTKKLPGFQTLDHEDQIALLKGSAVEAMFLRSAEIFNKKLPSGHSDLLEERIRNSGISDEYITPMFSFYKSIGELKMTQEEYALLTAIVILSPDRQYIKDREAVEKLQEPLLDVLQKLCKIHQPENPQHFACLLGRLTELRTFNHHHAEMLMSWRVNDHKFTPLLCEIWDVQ
Method: FXR reporter cell assays were performed by Indigo Biosciences as directed by Seres Therapeutics using Indigo's FXR reporter CHO cell line, which expresses an FXR receptor hybrid in which the native N-terminal DNA binding domain (DBD) has been replaced with that of a yeast Gal4 DBD. The reporter gene, firefly luciferase, is functionally linked to a Gal4 upstream activation sequence (UAS). […] Luminescence was determined following incubation with substrate and a detection reagent. In addition, live cell count was determined within the assay using a Live Cell Multiplex (LCM) Assay (Indigo Biosciences).

[2] = tested on: FXR; assay: FXR signaling in mice: CYP7A1 (liver) and FGF-15 (ileum) expression
From the text: We therefore tested a dose range of OCA as well as a fixed concentration of CA for their effects on FXR signaling in mice. Ileal and liver FXR signaling was monitored based on the expression of CYP7A1 (liver) and FGF-15 (Ileum).

Row | Structure (SMILES) | hFXR activation in combination with CDCA [1] | CYP7A1 expression (liver) [2] | FGF-15 levels (ileum) [2]
1 | C[C@H](CCC(=O)O)[C@H]1CC[C@H]2[C@@H]3[C@H](O)[C@H](O)[C@@H]4C[C@H](O)CC[C@]4(C)[C@H]3CC[C@]12C [HCA, hyocholic acid] | activated human FXR in a dose-dependent and synergistic manner | – | –
2 | CC[C@H]1[C@@H](O)[C@@H]2[C@H](CC[C@]3(C)[C@@H]([C@H](C)CCC(=O)O)CC[C@@H]23)[C@@]2(C)CC[C@@H](O)C[C@@H]12 [OCA, obeticholic acid] | – | dose dependent decrease in CYP7A1 expression | increase in FGF-15 levels
3 | C[C@H](CCC(=O)O)[C@H]1CC[C@H]2[C@@H]3[C@H](O)C[C@@H]4C[C@H](O)CC[C@]4(C)[C@H]3C[C@H](O)[C@]12C [cholic acid] | – | decreased CYP7A1 expression | increased FGF-15 levels in the ileum
